{"source": "patent US20030032669A1", "about": "“Pesticidal compositions and their use as protecting agents” (priority 2000, published 2003)", "origin": "cited, not measured here", "key": {"[1]": {"test_system": "plants"}, "[2]": {"conditions": "alcohols, ketones and toluene"}, "[3]": {"conditions": "aqueous solutions at 50° C."}, "[4]": {"test_system": "larvae of German cockroach Blatella germanica", "conditions": "exposure to 100 ng/cm^2; after 3 weeks"}, "[5]": {"test_system": "adult grain weevils Sitophilus granarius", "conditions": "wheat treated with 1 μg/g; after 50 days"}}, "data": [{"smiles": "O=C(NC(=O)c1c(F)cccc1F)Nc1ccc(Oc2ccc(C(F)(F)F)cc2Cl)cc1F", "note": "[flufenoxuron, 1-[4-(2-chloro-trifluoro-p-tolyloxy)-2-fluorophenyl]-3-(2,6-difluorobenzoyl)urea]", "values": [{"measurement": "phyto-toxicity", "setting": "[1]", "result": "no recorded phyto-toxicity"}, {"measurement": "degradation in soil", "result": "rapidly degraded"}]}, {"smiles": "CCOC(=O)NCCOc1ccc(Oc2ccccc2)cc1", "note": "[fenoxycarb, ethyl 2-(4-phenoxyphenoxy)ethylcarbamate]", "values": [{"measurement": "solubility in organic solvents", "setting": "[2]", "result": "very soluble"}, {"measurement": "stability to hydrolysis", "setting": "[3]", "result": "stable to hydrolysis"}, {"measurement": "degradation in soil", "result": "rapidly degraded"}, {"measurement": "reduction of population of larvae of German cockroach", "setting": "[4]", "result": 90, "unit": "%"}, {"measurement": "reduction of population of adult grain weevils", "setting": "[5]", "result": 100, "unit": "%"}]}]}
